Laboratory results as given in US12540143B2, “Methods and compositions for targeted protein degradation” (Ranok Therapeutics (Hangzhou) Co. Ltd., priority 2019, dated 2026).
pIC50: −log10 of the molar value. Where a name gives a salt, the structure may show the parent alone. Read-outs that look alike come from different tables or passages of the source.

Tests used:
HSP90α = HSP90α (Homo sapiens, UniProt P07900); assay: HSP90α Binding Fluorescent Polarization (FP) Assay; settings: competition with FITC-geldanamycin; read-out: HSP90 Binding Potency
Method: HSP90α Binding Fluorescent Polarization (FP) Assay
A master mix was prepared with assay buffer, BSA and FITC-geldanamycin. In a 96-well plate, a serial 3-fold dilution of each compound was prepared ranging from 40 μM down until 2.0 nM. Also in a 96-well plate, recombinant HSP90α protein was diluted to 28 μg/ml. Then, in a 384-well plate, 10 μl of master mix and 5 μl of compound dilution were added per well to duplicate wells and mixed by brief shaking. Then 5 μl of diluted HSP90α protein was added per well, mixed by brief shaking, incubated at 25° C. for 30, 60 and 120 min and fluorescence was measured on an En Vision Plate Reader. Background-subtracted mP values were calculated from En Vision raw data and a four-parameter “log[inhibitor] vs. response” curve was fitted using GraphPad Prism 7.0.

MV4-11 cells = assay: MV4-11 Cytotoxicity Assay; type: cell-based, human; settings: Homo sapiens, read-out: MV4-11 cytotoxicity
BRD4 = molecular target: T1, BRD4 (Homo sapiens, UniProt O60885); assay: BRD4 Degradation Flow Cytometry Assay in MV4-11 cells; type: cell-based; settings: for Percentage BRD4 degradation vs untreated / BRD4 degradation (in words) / BRD4 (% of control): MV4-11 cells; for Percentage BRD4 degradation vs untreated / BRD4 (% of control): 24 hr; for Percentage BRD4 degradation vs untreated: highest degradation percentage observed at concentrations between 40-1000 nM; for BRD4 degradation (in words): flow cytometry
T1 construct: endogenous in cells; host or cells: MV4-11
Method: Protein Degradation Flow Cytometry
(§1) MV4-11 cells were plated in a 24-well tissue culture plate at a density of 350,000 cells/450 μL/well and incubated in 37° C./5% CO2 for 1 hr. Cells were then treated with compounds at various concentrations and incubated in 37° C./5% CO2 for 24 hr. Cells were harvested, washed once, counted and 200 μL of 1% paraformaldehyde/PBS was added and incubated for 15 min at room temperature. 200 μL of 1×PBS/0.4% Triton X-100 was added and incubated for 15 min at 4° C. Cells were washed three times and resuspended in 50 μL of 1×PBS/0.2% Triton X-100. 2 μL/10^6 cells of anti-BRD4 antibody (ABCAM, #128874) was added and mixed by pipetting up and down. Cells were incubated for 30 min at room temperature in the dark, washed three times and resuspended in 50 μL of 1×PBS/0.2% Triton X-100. Goat anti-rabbit IgG H&L antibody (1:2000 dilution) was added and mixed by pipetting up and down and incubated for 30 min at room temperature in the dark. Finally, cells were washed three times and resuspended in 200 μL of PBS for flow cytometric analysis.

MYC protein = assay: MYC Protein Expression HTRF Assay in MV4-11 cells; type: cell-based; settings: Homo sapiens, 24 hr treatment
Method: MYC protein expression was measured using the Human c-Myc Cell-based Assay Kit (Cisbio, #63ADK053PEG), a homogeneous time resolved fluorescence (HTRF) assay. […] Cells were collected by centrifugation, supernatant removed by aspiration and 10 μL of lysis buffer was added and incubated for 45 min at room temperature while shaking. In a 384-well plate, 10 μL of cell lysate/well was combined with 10 μL of premixed antibody solution containing anti-human MYC-Eu3+ Cryptate prepared in detection buffer and incubated overnight at room temperature, whereupon the signal was measured. The ratio of the acceptor and donor emission signals for each individual well were calculated (ratio=665 nm/620 nm[…]).

BRD2 = molecular target: T2, BRD2 (Homo sapiens, UniProt P25440); assay: BET Protein Family Degradation Flow Cytometry Assay (BRD2) in MV4-11 cells; type: cell-based; settings: 24 hr
T2 construct: endogenous in cells; host or cells: MV4-11
T2 sequence (P25440 whole entry): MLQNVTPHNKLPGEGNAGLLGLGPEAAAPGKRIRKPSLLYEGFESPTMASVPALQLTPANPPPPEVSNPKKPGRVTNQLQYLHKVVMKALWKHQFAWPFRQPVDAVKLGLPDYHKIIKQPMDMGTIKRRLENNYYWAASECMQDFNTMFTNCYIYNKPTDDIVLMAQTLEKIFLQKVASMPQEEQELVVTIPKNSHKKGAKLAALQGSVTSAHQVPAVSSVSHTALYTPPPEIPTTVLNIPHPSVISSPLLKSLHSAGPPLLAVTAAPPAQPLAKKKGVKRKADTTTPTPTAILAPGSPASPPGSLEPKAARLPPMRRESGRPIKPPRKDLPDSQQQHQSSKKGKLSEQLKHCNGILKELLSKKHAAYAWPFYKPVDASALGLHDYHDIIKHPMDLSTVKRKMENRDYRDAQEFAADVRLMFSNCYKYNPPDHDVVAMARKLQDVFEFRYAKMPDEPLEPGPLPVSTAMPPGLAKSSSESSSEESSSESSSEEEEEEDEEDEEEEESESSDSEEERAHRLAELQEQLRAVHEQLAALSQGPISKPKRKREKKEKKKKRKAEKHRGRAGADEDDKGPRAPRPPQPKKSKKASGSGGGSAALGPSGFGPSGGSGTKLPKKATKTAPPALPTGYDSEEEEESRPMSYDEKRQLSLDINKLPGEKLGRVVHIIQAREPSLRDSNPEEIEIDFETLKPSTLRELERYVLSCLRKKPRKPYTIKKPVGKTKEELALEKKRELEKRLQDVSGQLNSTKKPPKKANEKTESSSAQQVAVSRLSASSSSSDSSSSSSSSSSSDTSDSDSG
Method: as §1
(§2) Similar western blotting experiments of for BRD2 and BRD3 were performed in MV4-11 cells using anti-BRD2 (Cell Signaling Technology, #139690) and anti-BRD3 (Cell Signaling Technology, #50818).

BRD3 = molecular target: T3, BRD3 (Homo sapiens, UniProt Q15059); assay: BET Protein Family Degradation Flow Cytometry Assay (BRD3) in MV4-11 cells; type: cell-based; settings: 24 hr
T3 construct: endogenous in cells; host or cells: MV4-11
T3 sequence (Q15059 whole entry): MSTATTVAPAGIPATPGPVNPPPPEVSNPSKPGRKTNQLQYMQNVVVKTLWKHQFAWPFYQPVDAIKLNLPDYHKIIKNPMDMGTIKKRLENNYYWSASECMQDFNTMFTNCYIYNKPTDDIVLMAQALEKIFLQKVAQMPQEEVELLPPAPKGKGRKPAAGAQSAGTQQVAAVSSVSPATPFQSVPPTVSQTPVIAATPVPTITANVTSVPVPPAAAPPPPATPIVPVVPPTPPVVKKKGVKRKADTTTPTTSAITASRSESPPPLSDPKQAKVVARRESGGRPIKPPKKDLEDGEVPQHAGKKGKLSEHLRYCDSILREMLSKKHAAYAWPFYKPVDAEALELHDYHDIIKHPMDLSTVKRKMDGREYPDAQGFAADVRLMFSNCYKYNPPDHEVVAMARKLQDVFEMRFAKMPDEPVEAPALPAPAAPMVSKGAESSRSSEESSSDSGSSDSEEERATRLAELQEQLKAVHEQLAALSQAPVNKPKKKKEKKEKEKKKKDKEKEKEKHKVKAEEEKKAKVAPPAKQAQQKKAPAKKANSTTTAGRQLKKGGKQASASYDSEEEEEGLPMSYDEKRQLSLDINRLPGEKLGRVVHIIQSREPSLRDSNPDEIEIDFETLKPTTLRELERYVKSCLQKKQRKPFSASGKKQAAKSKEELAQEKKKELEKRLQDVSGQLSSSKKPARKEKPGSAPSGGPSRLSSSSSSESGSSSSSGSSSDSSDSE
Method: as §1, §2

[1] = tested on: SU-DHL-4 diffuse large B-cell lymphoma xenograft; assay: SU-DHL-4 DLBCL xenograft model in mice
Method: 10 μL the cell proliferation reagent CCK-8 (WST-8) was added into each well and incubated at 37° C./5% CO2 for 3-4 hr and the absorbance at 450 nm measured with an En Vision Plate Reader.
5×10^6 MV-4-11 or 1×10^7 SU-DHL-4 cells were collected and re-suspended in 0.1 mL of serum-free media with Matrigel (1:1 v/v) per mouse for subcutaneous inoculation in isoflurane anesthetized male BALB/c nude or C.B-17 scid mice, respectively (treated in accordance with AAALAC animal welfare guidelines). When the average tumor volumes reached 100-200 mm^3, tumor volume outliers were removed and the remaining animals randomly divided into groups of 6-8 with similar average tumor volumes in each group. […] Animals were intravenously dosed at 25 mg/kg, 50 mg/kg or 100 mg/kg 1×/week for 3 or 4 weeks. The appearance and behavior of each mouse was observed and recorded daily. Body weights and tumor volumes were measured and recorded every 2-4 days and the results were expressed as group means±SEM. Pairwise statistical comparisons between groups were performed by one-way ANOVA, and p<0.05 was considered statistically significant.

[2] = tested on: MV4-11 acute myeloid leukemia xenograft; assay: MV4-11 AML xenograft model in mice; settings: 25 mg/kg intraperitoneal 1×/day
Method: MV4-11 cells were plated in a 96-well tissue culture plate at a density of 4,500 cells/90 μL/well and incubated at 37° C./5% CO2 for 24 hr. Cells were then treated with compounds at various concentrations (a 10-point, 3-fold serial dilution series starting at 20 μM) with a final concentration of 0.5% DMSO/well and then incubated in 37° C./5% CO2 for 72 hr. 10 μL the cell proliferation reagent CCK-8 (WST-8) was added into each well and incubated at 37° C./5% CO2 for 3-4 hr and the absorbance at 450 nm measured with an En Vision Plate Reader.
MV4-11 acute myeloid leukemia and SU-DHL-4 diffuse large B-cell lymphoma (ATCC, #CRL-2957) cells were cultured in medium supplemented with 10% fetal bovine serum at 37° C./5% CO2. 5×10^6 MV-4-11 or 1×10^7 SU-DHL-4 cells were collected and re-suspended in 0.1 mL of serum-free media with Matrigel (1:1 v/v) per mouse for subcutaneous inoculation in isoflurane anesthetized male BALB/c nude or C.B-17 scid mice, respectively (treated in accordance with AAALAC animal welfare guidelines). When the average tumor volumes reached 100-200 mm^3, tumor volume outliers were removed and the remaining animals randomly divided into groups of 6-8 with similar average tumor volumes in each group. […] The appearance and behavior of each mouse was observed and recorded daily. Body weights and tumor volumes were measured and recorded every 2-4 days and the results were expressed as group means±SEM. Pairwise statistical comparisons between groups were performed by one-way ANOVA, and p<0.05 was considered statistically significant.

[3] = 100 mg/kg intravenous 1×/week, after 4 weeks of dosing

Molecule: Cc1sc2c(c1C)C(c1ccc(Cl)cc1)=N[C@@H](CC(=O)NC(C)c1ccc(CN3CCC(Cc4ccc(-n5c(O)nnc5-c5cc(C(C)C)c(O)cc5O)cc4)CC3)cc1)c1nnc(C)n1-2 (stereo in doubt) [Compound 82, 2-((S)-4-(4-chlorophenyl)-2,3,9-trimethyl-6H-thieno[3,2-f][1,2,4]triazolo[4,3-a][1,4]diazepin-6-yl)-N—((R)-1-(4-((4-(4-(3-(2,4-dihydroxy-5-isopropylphenyl)-5-hydroxy-4H-1,2,4-triazol-4-yl)benzyl)piperidin-1-yl)methyl)phenyl)ethyl)acetamide hydrochloride]
- pIC50 (HSP90α): 6.00 to 7.00
- pIC50 (MV4-11 cells; MV4-11, 72 hr, CCK-8): > 7.00

Molecule: Cc1sc2c(c1C)C(c1ccc(Cl)cc1)=N[C@H](CC(=O)N1CCC(CN3CCN(Cc4ccc(-n5c(O)nnc5-c5cc(C(C)C)c(O)cc5O)cc4)CC3)CC1)c1nnc(C)n1-2 [Compound 5, 2-((6R)-4-(4-chlorophenyl)-2,3,9-trimethyl-6H-thieno[3,2-f][1,2,4]triazolo[4,3-a][1,4]diazepin-6-yl)-1-(4-((4-(4-(3-(2,4-dihydroxy-5-isopropylphenyl)-5-hydroxy-4H-1,2,4-triazol-4-yl)benzyl)piperazin-1-yl)methyl)piperidin-1-yl)ethanone, trifluoroacetic acid]
- Percentage BRD4 degradation vs untreated (BRD4): C (Degradation < 10%)
- BRD4 degradation (in words) (BRD4): does not degrade BRD4
- pIC50 (MV4-11 cells; MV4-11, 72 h): > 7.00
- pIC50 (MYC protein): > 7.00

Molecule: Cc1sc2c(c1C)C(c1ccc(Cl)cc1)=N[C@@H](CC(=O)N1CCC(CN3CCN(Cc4ccc(-n5c(O)nnc5-c5cc(C(C)C)c(O)cc5O)cc4)CC3)CC1)c1nnc(C)n1-2 [Compound 40, 2-((6S)-4-(4-chlorophenyl)-2,3,9-trimethyl-6H-thieno[3,2-f][1,2,4]triazolo[4,3-a][1,4]diazepin-6-yl)-1-(4-((4-(4-(3-(2,4-dihydroxy-5-isopropylphenyl)-5-hydroxy-4H-1,2,4-triazol-4-yl)benzyl)piperazin-1-yl)methyl)piperidin-1-yl)ethanone, trifluoroacetic acid]
- Percentage BRD4 degradation vs untreated (BRD4): A (Degradation > 50%)
- ability to degrade BRD4 after pretreatment (BRD4; cells pretreated with a combination of a HSP90 binder and (+)-JQ1): significantly reduced
- pIC50 (MYC protein): > 7.00

Molecule: Cc1sc2c(c1C)C(c1ccc(Cl)cc1)=N[C@@H](CC(=O)NCC(=O)NCC1CCN(C(=O)C3CCN(Cc4ccc(-n5c(O)nnc5-c5cc(C(C)C)c(O)cc5O)cc4)CC3)C1)c1nnc(C)n1-2 (stereo partly drawn) [Compound 47, 2-((S)-4-(4-chlorophenyl)-2,3,9-trimethyl-6H-thieno[3,2-f][1,2,4]triazolo[4,3-a][1,4]diazepin-6-yl)-N-(2-(((1-(1-(4-(3-(2,4-dihydroxy-5-isopropylphenyl)-5-hydroxy-4H-1,2,4-triazol-4-yl)benzyl)piperidine-4-carbonyl)pyrrolidin-3-yl)methyl)amino)-2-oxoethyl)acetamide, trifluoroacetic acid]
- BRD2 (% of control) (BRD2; 100 nM): 81.2 % of control
- BRD2 (% of control) (BRD2; 300 nM): 102.2 % of control
- BRD4 (% of control) (BRD4; 100 nM): 17.3 % of control
- BRD4 (% of control) (BRD4; 300 nM): 9.6 % of control
- pIC50 (MV4-11 cells; MV4-11, 72 hr, CCK-8): > 7.00
- BRD3 (% of control) (BRD3; 100 nM): 95.0 % of control
- BRD3 (% of control) (BRD3; 300 nM): 91.4 % of control

Molecule: CCc1cc(-c2nnc(C(=O)NCC(F)(F)F)n2-c2ccc(CN3CCN(CC4CCN(C(=O)C[C@@H]5N=C(c6ccc(Cl)cc6)c6c(sc(C)c6C)-n6c(C)nnc65)CC4)CC3)cc2)c(O)cc1O.Cl [Compound 78, 4-(4-((4-((1-(2-((6S)-4-(4-chlorophenyl)-2,3,9-trimethyl-6H-thieno[3,2-f][1,2,4]triazolo[4,3-a][1,4]diazepin-6-yl)acetyl)piperidin-4-yl)methyl)piperazin-1-yl)methyl)phenyl)-5-(5-ethyl-2,4-dihydroxyphenyl)-N-(2,2,2-trifluoroethyl)-4H-1,2,4-triazole-3-carboxamide hydrochloride]
- tumor growth inhibition (FIG. 4a) [1, 3]: significant tumor growth inhibition
- tumor vs control (T/C) value [1, 3]: 28%
- animal deaths and body weights (FIG. 4b) ([1]; any dose level, SU-DHL-4 xenograft): No animal deaths or significant effects on body weights were observed

Molecule: Cc1sc2c(c1C)C(c1ccc(Cl)cc1)=N[C@@H](CC(=O)NCCCCNC(=O)COc1cccc3c1C(=O)N(C1CCC(=O)NC1=O)C3=O)c1nnc(C)n1-2 (stereo partly shown) [dBET1]
- BRD2 (% of control) (BRD2; 3 nM): 96.4 % of control
- BRD2 (% of control) (BRD2; 10 nM): 94.9 % of control
- BRD2 (% of control) (BRD2; 30 nM): 55.1 % of control
- BRD2 (% of control) (BRD2; 100 nM): 9.3 % of control
- BRD2 (% of control) (BRD2; 300 nM): 0.5 % of control
- BRD3 (% of control) (BRD3; 3 nM): 89.7 % of control
- BRD3 (% of control) (BRD3; 10 nM): 43.2 % of control
- BRD3 (% of control) (BRD3; 30 nM): 14.5 % of control
- BRD3 (% of control) (BRD3; 100 nM): 1.4 % of control
- BRD3 (% of control) (BRD3; 300 nM): 0.3 % of control

Molecule: (+)-JQ1 [reference compound]
- BRD4 degradation (in words) (BRD4): no substantial BRD4 degradation was observed
- tumor growth inhibition [2]: moderate tumor growth inhibition
